# Measured values as given in PubChem BioAssay (NCI).
#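 Each compound was tested at five concentrations against cells in 96-well plates for 48 hours. GI50 is the concentration that inhibits growth by half. Definition used: TGI = concentration required for complete inhibition of growth.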
# Legend:
# Test in all cases: DTP human tumour cell line panel, 48 h
# A549 NSCLC = system: A549 NSCLC
# HCC-2998 colon = system: HCC-2998 colon
# HL-60(TB) leukemia = system: HL-60(TB) leukemia
# NCI-H226 lung = system: NCI-H226 lung
# NCI-H522 lung = system: NCI-H522 lung
# OVCAR-5 ovarian = system: OVCAR-5 ovarian
# SF-268 CNS = system: SF-268 CNS
# SF-295 CNS = system: SF-295 CNS
# SNB-75 CNS = system: SNB-75 CNS
# UACC-257 melanoma = system: UACC-257 melanoma
SMILES,GI50 (A549 NSCLC) [nM],TGI (A549 NSCLC) [µM],GI50 (HCC-2998 colon) [nM],TGI (HCC-2998 colon) [µM],GI50 (HL-60(TB) leukemia) [nM],TGI (HL-60(TB) leukemia) [µM],GI50 (NCI-H226 lung) [µM],TGI (NCI-H226 lung) [µM],GI50 (NCI-H522 lung) [nM],TGI (NCI-H522 lung) [µM],GI50 (OVCAR-5 ovarian) [µM],TGI (OVCAR-5 ovarian) [µM],GI50 (SF-268 CNS) [µM],TGI (SF-268 CNS) [µM],GI50 (SF-295 CNS) [nM],TGI (SF-295 CNS) [µM],GI50 (SNB-75 CNS) [µM],TGI (SNB-75 CNS) [µM],GI50 (UACC-257 melanoma) [nM],TGI (UACC-257 melanoma) [µM]
CC1(C)N=C(N)N=C(N)N1c1ccc(OCc2ccc(S(=O)(=O)F)c(Cl)c2)c(Cl)c1,499,> 100,4970,> 100,1350,> 100,9.72,> 100,3280,> 100,> 100,> 100,2.85,> 100,3880,> 100,4.92,> 100,2380,> 100
CCN(CC)CCCC(C)Nc1cnc(C(=O)Nc2cccc3ccc(OC)nc23)cn1 (centres undefined),2600,7.02,1820,3.46,1920,3.9,7.52,21.7,1890,3.79,1.81,3.78,11.2,25.8,15000,29.9,10.6,22.8,2430,5.98
Cn1cnc([N+](=O)[O-])c1[Se]c1nc(N)nc2c1ncn2C1OC(CO)C(O)C1O (centres undefined),–,> 100,–,> 100,–,> 100,–,> 100,–,> 100,–,> 100,–,> 100,–,> 100,–,> 100,–,> 100
C=C(C)C1CCC2(C(=O)O)CCC3(C)C(CCC4C5(C)CCC(OC(=O)NCc6ccccc6)C(C)(C)C5CCC43C)C12 (centres undefined),961,> 100,2800,> 100,2390,28.1,6.69,> 100,150,10.4,84.3,> 100,4.84,> 100,3150,> 100,98.4,> 100,2300,> 100
O=C1/C(=C/c2ccc(O)cc2)CSc2ccc(Cl)cc21,32000,> 100,13600,30.1,2270,> 100,22.1,51.2,3250,10.7,19.8,40.4,15.4,41.3,18200,40.1,18.3,54.8,19100,38.9
CCc1oc2ccccc2c1C(=O)c1cc(I)c(O)c(I)c1,3610,17.6,4840,17.5,1620,8.74,10.6,27,1840,12.9,11.4,25.1,2.89,15.2,2050,7.65,1.54,6.43,6130,21.1
C/C(=N\Nc1ccc(Cl)cn1)c1ccccn1,364,> 100,554,68.2,35.9,1.08,0.0939,2.65,39,9.99,0.225,> 100,0.213,> 73.2,262,5.18,0.208,> 76.2,117,–
C/C=C(\C)CC/C=C/CO[Si](C)(C)C(C)(C)C,–,> 100,–,> 100,–,52.1,–,> 100,–,> 100,–,> 100,–,> 100,–,> 100,–,> 100,–,> 100
CC[C@H](C)[C@H]1O[C@]2(C=C[C@@H]1C)C[C@@H]1C[C@@H](C/C=C(\C)[C@@H](O[C@H]3C[C@H](OC)[C@@H](O[C@H]4C[C@H](OC)[C@@H](NC)[C@H](C)O4)[C@H](C)O3)[C@@H](C)/C=C/C=C3\CO[C@@H]4[C@H](O)C(C)=C[C@@H](C(=O)O1)[C@]34O)O2,2010,6.38,1890,3.36,1880,3.81,4.26,16,1750,3.73,3.41,14.9,3.9,16,2600,8.17,1.93,8.44,2030,4.21
COc1cc2c(c(OC)c1OC)C(=O)[C@@H]1c3ccc([N+](=O)[O-])cc3C(=O)N(CCCBr)[C@H]21,12300,45.5,1170,7.51,64200,> 100,13.6,49.7,4180,25.2,31,91.9,8.6,41.6,2040,19.7,9.46,45.1,5210,30.8
Cc1ccc(C(=O)Nc2ccc(CN3CCN(C)CC3)c(C(F)(F)F)c2)cc1C#Cc1cnc(N)c2ccccc12,447,1.26,738,1.56,491,2.41,1.16,6.54,465,1.36,0.609,1.5,0.403,1.26,785,1.69,0.726,1.52,736,1.73
O=C(O)[C@@H]1CCCCN1Cc1cc2cc3c(cc2c2cc(OCc4ccccc4)ccc12)OCO3,3740,15.1,19300,33.6,> 100000,> 100,2.09,5.7,4890,18.4,19.2,44,2.98,21.2,1950,8.3,2.96,8.91,3400,12
